In data set [1] the test system is lithiasic mice (cystine stone growth). As to the kind of experiment: 3-month L-Erg treatment of lithiasic mice, cystine stone growth by X-ray imaging. Format: in vivo, mouse. The note with it: 3 months. On the procedure:
For the evaluation of L-Erg effect on lithiasic mice, 15 mice (8 males and 7 females) were treated with 60 mg/L L-Erg on the drinking water and 13 mice (4 male and 9 females were left untreated as control. Mice were 10.9-26-9 weeks-old at the beginning of the treatment period with a mean age of 15.3±1.4 and 16.9±1.01 weeks of age for control and L-Erg treated, respectively. During the 3-month treatment water intake and mice weight was monitored weekly.
(§1) Isoflurane anesthetized mice were subjected to X-ray imaging for lithiasis detection and follow-up with an IVIS Lumina XR Series III (Caliper Lifescience-Vertex Techniques) following manufacturer's imaging parameters at the age indicated in the corresponding figure legends with a calibration curve of cystine stone of known weights. Stone quantification was done using Living Image Software, provided with the instrument, by manually delimiting stone area and the estimated weight was interpolated from the calibration curve.
(§2) For the growth rate analysis, a linear regression model was used when more than 2 data points where available. The slope of the regression line in the model was used as the growth rate.
(§3) During the last week of any treatment period, mice were individually housed in metabolic cages for 4 days with the first day as an adaptation period. Mice weight, water and food intake, and excreted urine were monitored daily. 24 h urine samples were collected and kept at −80° C. until further analysis with 50 μL thymol 10% in isopropanol as preservative. pH was determined with a pHmeter (cat. no. 5209, Crison), and the redox potential with an ORP electrode (cat.no. 5265, Crison) at room temperature on a micropH 2000 (Crison).

Data set [2] in a line: L-Erg-Cys in vitro binding assay. The note with it: pH=7.2 and pH=11, RT, 17 h, LC/MS-MS. The method, then: The reactivity of L-Erg with itself and with Cys was assayed in vitro at two conditions pH=7.2 in 0.2M Na2HPO4 and pH=11 in boric acid buffer (ref. 33650-1L, Fluka) at RT for 17 h. The presence of L-Erg-L-Erg and L-Erg-Cys dimers, and cystine was determined by LC/MS-MS.

In data set [3] the test system is cystinuric mice (cystine stone formation). As to the kind of experiment: 6-month (chronic) L-Erg treatment of cystinuric mice since weaning, cystine stone onset by X-ray imaging. It is filed as in vivo, mouse. The note with it: for stone growth (rate) in the L-Erg treated group: preventive treatment. The method, then:
For the chronic exposure (6-month treatment), 4-6 mice per cage were treated since weaning for 6 months. To control L-Erg dose, water intake and mice weight were monitored and L-Erg concentration in drinking water was adjusted to get 16 mg/kg·day dose every 3 days for the first month and weekly afterwards. All mice were caged in metabolic cages individually the last week of the treatment to collect urine where water intake and mice weight were monitored daily.
as §1, §2, §3
On the last day, mice were anesthetized with isfluorane and blood removed through intracardiac puncture and kidneys were harvested, weighted and stored at −80° C. until further use. Cystine stones, if present, were removed, dried, weighted and stored at RT.

For data set [4] the following is noted: equivalent of 5 mg/kg·day; cited from earlier work.
Data set [5] deals with transulfuration pathway metabolites in kidney. Briefly: Intracellular content of transulfuration pathway metabolites in kidneys of chronically treated mice (UPLC-MS/MS). The note with it: chronically L-Erg treated vs untreated mice. Format: in vivo, mouse. On the procedure:
For the chronic exposure (6-month treatment), 4-6 mice per cage were treated since weaning for 6 months. To control L-Erg dose, water intake and mice weight were monitored and L-Erg concentration in drinking water was adjusted to get 16 mg/kg·day dose every 3 days for the first month and weekly afterwards. All mice were caged in metabolic cages individually the last week of the treatment to collect urine where water intake and mice weight were monitored daily. On the last day, mice were anesthetized with isfluorane and blood removed through intracardiac puncture and kidneys were harvested, weighted and stored at −80° C. until further use. Cystine stones, if present, were removed, dried, weighted and stored at RT. L-Erg and S-Met-L-Erg analysis in urine were determined as in Example 1. For the determination of transulfuration pathway metabolites concentration, frozen kidneys were grinded using a pre-cooled mortar and pestle on dry ice. Then, 100 mg of powdered kidney were homogenized in 400 μL PBS supplemented with 10 mM NEM. To induce protein precipitation, PCA at 4% was added and samples were centrifuged at 4° C. for 15 min at 10,000 rpm in a microfuge. Supernatants were transferred to a new tube and stored at −80° C. until further analysis. Intracellular content of transulfuration pathway metabolites was determined by U PLC-MS/MS (Escobar J, et al. Development of a reliable method based on ultra-performance liquid chromatography coupled to tandem mass spectrometry to measure thiol-associated oxidative stress in whole blood samples. J. Pharm. Biomed. Anal. 2016; 123: 104-112). Protein pellets were resuspended in 400 μL 1M NaOH and the supernatant used to determine total protein concentration by BCA Protein Assay Kit (ThermoScientific).

In another data set the test system is cystinuria mouse model. Briefly: 1-month L-Erg treatment in the drinking water (dose finding): water intake, urine pH, ORP, urine L-Erg and S-Met-L-Erg. Format: in vivo. The note with it: for increase of L-Erg concentration in urine: after vs before treatment. On the procedure: Three different treatments were applied to mice: 1-month, 3-month to lithiasic mice (subchronic) and 6-month (chronic exposure). In all cases L-Erg was administered in the drinking water.
For the 1-month treatment, L-Erg was provided to eight 3-month old male and female mice at 15 or 60 mg/L for 4 weeks in standard cages with free access to water and food to 8 mice (4 males and 4 females).
as §3
L-Erg and S-Met-L-Erg analysis in urine were determined as in Example 1. For the determination of transulfuration pathway metabolites concentration, frozen kidneys were grinded using a pre-cooled mortar and pestle on dry ice. Then, 100 mg of powdered kidney were homogenized in 400 μL PBS supplemented with 10 mM NEM. To induce protein precipitation, PCA at 4% was added and samples were centrifuged at 4° C. for 15 min at 10,000 rpm in a microfuge. Supernatants were transferred to a new tube and stored at −80° C. until further analysis. Intracellular content of transulfuration pathway metabolites was determined by U PLC-MS/MS (Escobar J, et al. Development of a reliable method based on ultra-performance liquid chromatography coupled to tandem mass spectrometry to measure thiol-associated oxidative stress in whole blood samples. J. Pharm. Biomed. Anal. 2016; 123: 104-112). Protein pellets were resuspended in 400 μL 1M NaOH and the supernatant used to determine total protein concentration by BCA Protein Assay Kit (ThermoScientific).
First, there were determined the best working dose for treating the mice by investigating the effects of 1-month L-Erg treatment at two different concentrations in the drinking water, 15 and 60 mg/L, on water intake, and urine pH and ORP and L-Erg concentration.

Data set [6] has as its system lithiasic phenotype in cystinuric mice. As to the kind of experiment: ROC curve of urine S-Met-L-Erg concentration to differentiate the lithiasic phenotype. Also on record: species or system mouse. The note with it: stone former vs non-stone former Slc7a9-/- mice. On the procedure: Mice from each genotype were individually housed in metabolic cages for 4 days with the first day as an adaptation period. Mice weight, water and food intake, and feces and urine excreted were monitored daily. 24 h urine samples were collected and kept at −80° C. until further analysis with 50 μL thymol 10% in isopropanol as preservative. Blood was obtained by intracardiac puncture with EDTA coated syringes and transferred into Microvette EDTA-tubes (Sarstedt) and centrifuged at 3000 rpm for 10 min and 4° C. in a minifuge after a 10 min incubation at room temperature. Plasma was then separated into a new tube and kept on ice. Plasma absorbance at 414 nm was then determined to quantify hemolysis with a NanoDrop spectrophotometer and only those with OD<0.2 were considered for the further analysis. Plasma samples were stored at −80° C. and centrifuged erythrocytes (RBCs) were also collected and stored at −80° C.
For L-Erg and S-met-L-Erg analysis in urine, thawed urine samples where centrifuged at 1000×g 5 min and 4° C. to remove any debris. […] The samples where then filtered through eXtremeFV PVDF 0.2 μm filter vials (Thomson Instrument Company), and L-Erg and S-met quantified by UPLC-MS/MS. […]
Mass spectrometry was carried out under positive ion, electrospray ionization mode, using multiple reaction monitoring (MRM) for quantification of specific target ions. […]

Setting [7] is: 60 mg/L, before vs after treatment.
The mark [8] stands for this setting: end of 6-month treatment, treated vs non-treated.
Where [9] appears, read: 60 mg/L L-Erg in drinking water.

For `C[N+](C)(C)[C@@H](Cc1c[nH]c(=S)[nH]1)C(=O)[O-]` (stereo in doubt) [L-Erg, [1-carboxy-2-(2-sulfanylidene-1,3-dihydroimidazol-4-yl)ethyl]-trimethylazanium], the “effect on cystine stone growth” value in data set [1] (60 mg/L in drinking water, lithiasic mice, treated vs untreated, p=0.61) was “No effect”. Moreover, the “effect on growth of multiple stones” value in data set [1] (60 mg/L in drinking water, p=0.41) is on record as “No statistically significant effect”. Besides, the “effect on growth of single stones” value in data set [1] (60 mg/L in drinking water, p=0.78) is listed as “No statistically significant effect”. Further, in data set [1] (setting [7]), the “effect on surface corrected water intake” value is reported as “no differences”, the “effect on urine pH” value is “no differences” and the “effect on urine redox status” value is recorded as “no differences”. For the same molecule, the “formation of L-Erg-Cys and L-Erg-L-Erg dimers” value in data set [2] is recorded as “Neither L-Erg-Cys, nor L-Erg-L-Erg dimers were detected”. In data set [3] (16 mg/kg·day, 6 months, independently of sex), the lithiasis onset result is recorded as “delayed lithiasis onset”. Further, the “stone growth (rate) in the L-Erg treated group” value in data set [3] (16 mg/kg·day, 6 months, vs untreated) is listed as “almost statistically significant reduction”. Also, in data set [3] (16 mg/kg·day, 6 months, vs untreated, listed as ergothioneine), the “stone growth (rate) in the L-Erg treated group” value was “lower”. In data set [3] (6-month chronic treatment), the “effect on mouse weight” value is “no effects” and the “effect on water intake” value was “no effects”. Besides, in data set [3] (setting [8]), the “effect on urine pH” value is “no differences” and the “effect on urine redox potential” value is “statistically significant more reduced urine”. Also, the “side effects in cystinuric mice” value in data set [3] (mouse, in vivo) is on record as “does not generate any side effect”. Besides, the “reduction in the number of lithiasic (stone-forming) mice” value in data set [3] (target dose 16 mg/kg·day in drinking water since weaning, 6 months, vs untreated) came out at 50%. Also, the “delay of stone formation in relation to non-treated mice” value in data set [3] (treated mice that still formed stones) worked out at 1 month. Also, the “time L-Erg blood and plasma concentrations remain significatively higher after the administration end” value in data set [4] was 6 weeks. Besides, in data set [5], the “Cys intracellular concentration in kidney, increase” value stood at 1.6 ×; the “Cys/CssC ratio in kidney, increase” value was found to be 6.1 times; the “GSH intracellular concentration in kidney, increase” value stood at 1.4 ×; the “GSH/GSSG ratio in kidney, increase” value came out at 2.1 times. Moreover, in data set [5], the “Met intracellular concentration in kidney, increase” value amounted to 1.7 ×; the “S-adenosylhomocysteine (SAH) intracellular concentration in kidney, decrease” value came out at 1.2 ×; the “SAM/SAH ratio in kidney, increase” value came to 1.8 times; the “cystine intracellular concentration in kidney, decrease” value was 11.1 ×. For the same molecule, the “gamma-Glutamylcysteine intracellular concentration in kidney, increase” value in data set [5] stood at 1.7 ×. Besides, the “increase of L-Erg concentration in urine” value in the data set on cystinuria mouse model (15 mg/L L-Erg in drinking water) was 3.4±0.4 fold. For the same molecule, the “urine pH change” value in the data set on cystinuria mouse model (15 mg/L L-Erg in drinking water, p=0.052) was “statistically non-significant increase”. The “water intake normalized by surface, change at the end of the treatment” value with cystinuria mouse model (15 mg/L L-Erg in drinking water, p=0.11) was “statistically non-significant increase”. In addition, in the data set with cystinuria mouse model (setting [9]), the “urine pH change” value was “statistically significant increase” and the “increase of L-Erg concentration in urine” value is given as 174.6±38.4 fold. Further, in the data set on cystinuria mouse model (60 mg/L L-Erg in drinking water, p=0.08), the “water intake normalized by surface, change at the end of the treatment” value is “statistically non-significant increase”. Further, the “urine redox status or potential (ORP) change” value in the data set with cystinuria mouse model (15 and 60 mg/L L-Erg in drinking water) was “statistically non-significant decrease”.

Regarding `CSc1ncc(C[C@@H](C(=O)[O-])[N+](C)(C)C)[nH]1` [S-Met-L-Erg, (2-{S})-3-(2-methylsulfanyl-1-{H}-imidazol-5-yl)-2-(trimethylazaniumyl)propanoate], the “area under the ROC curve, urine concentration as lithiasic biomarker” value in data set [6] was “over 0.65”.

(Values after US12648932B2, “Ergothioneine, S-methyl-ergothioneine, and uses thereof” (FUNDACIÓ INSTITUT D'INVESTIGACIÓ BIOMÈDICA DE BELLVITGE …, priority 2019, dated 2026).)
